Experimental data taken from patent publication EP0201999A1 (priority 1985, dated 1986).
Marks after values point to notes of the source that are not given here.

What was measured:
Assay type in all cases: in vivo
VENTURIA INAEQUALIS = experiment: Foliar fungal disease test on plants (Example 29), Venturia inaequalis on apples; conditions: 100 ppm a.i. foliar spray plus root drench approx. 40 ppm ai./dry soil, mostly protectant, applied 1-2 days before inoculation
Description: (§1) The compounds were tested against a variety of mainly foliar fungal diseases of plants. The techniques employed were as follows.
(§2) For all tests the plants were grown in John Innes Potting Compost (No. 1 or 2) in 4 cm diameter minipots. The test compounds were formulated either by bead milling with aqueous Dispersol T or as a solution in acetone or acetone/ethanol which was diluted to the required concentration immediately before use. The solutions or suspensions (100 ppm ia.) were sprayed on the foliage and applied to the roots of the plant via the soil. The sprays were applied to maximum retention and the root drenches to a final concentration equivalent to approximately 40 ppm ai./dry soil. "TWEEN" 20, to give a final concentration of 0.05%, was added when the sprays were applied to cereals. (a.i. means "active ingredient"). The word "TWEEN" is a Trade Mark.
(§3) Most were protectant tests where the compound was applied to the soil and roots and to the foliage one or two days before the plant was inoculated with the pathogen. The foliar pathogens were applied by spraying as spore suspensions onto the leaves of the test plants.
(§4) After inoculation, the plants were placed in an appropriate environment to allow infection to proceed and then incubated until the disease was ready for assessment. The period between inoculation and assessment varied from four to fourteen days according to the disease and the environment.
(§5) Disease control was recorded using the following grading system : • 4 = no disease • 3 = trace to 5% of disease on untreated plants • 2 = 6-25% of disease on untreated plants • 1 = 26-59% of disease on untreated plants • 0 = 60-100% of disease on untreated plants

[…] [1] = Foliar fungal disease test on plants (Example 29), […] on vines; conditions: 100 ppm a.i. foliar spray plus root drench approx. 40 ppm ai./dry soil, mostly protectant, applied 1-2 days before inoculation
Description: as §1, §2, §3, §4, §5

P[…] = conditions: 100 ppm a.i. foliar spray plus root drench approx. 40 ppm ai./dry soil, mostly protectant, applied 1-2 days before inoculation
CERCOSPORA ARACHIDICOLA = experiment: Foliar fungal disease test on plants (Example 29), Cercospora arachidicola on peanuts; conditions: 100 ppm a.i. foliar spray plus root drench approx. 40 ppm ai./dry soil, mostly protectant, applied 1-2 days before inoculation
Description: as §1, §2, §3, §4, §5

PUCCINIA RECONDITA = experiment: Foliar fungal disease test on plants (Example 29), Puccinia recondita on wheat; conditions: 100 ppm a.i. foliar spray plus root drench approx. 40 ppm ai./dry soil, mostly protectant, applied 1-2 days before inoculation
Description: as §1, §2, §3, §4, §5

[…] [2] = Root drench test against Plasmopara viticola on vines (Example 30); conditions: vines (variety ohanez), 25 ppm, approx. 10 ppm compound/dry soil, inoculated after 2 days, assessed six days later
Description: This Example illustrates the activity of the invention compounds against the disease Plasmopara viticola on vines.
For the test on Plasmopara viticola the vine plants (variety ohanez) were grown in John Innes Potting Compost (No. 1 or 2) in 4 cm diameter minipots. The test compounds were formulated either by bead milling with aqueous Dispersol T or as a solution in acetone or acetone/ ethanol which was diluted to a concentration of 25 ppm of the compound immediately before use. The solutions or suspensions were applied as a root drench to a final concentration equivalent to approximately 10 ppm compound/dry soil. After 2 days the plants were inoculated with the pathogen, and then placed in a humidity cabinet to allow infection to proceed, and the assessment carried out six days later.
The disease grading system was as for Example 29.

[3] = tested on: Phytophthora infestans lycopersicii; conditions: tomato plants (variety Outdoor Girl); 100 ppm ai.; inoculated after 1 day; 24 hours humidity cabinet, assessed after a further 2 days
[…] [4] = Root drench test against Plasmopara viticola on vines (Example 30); conditions: vines (variety ohanez), test concentration 30 ppm (marked *), inoculated after 2 days, assessed six days later

Row | SMILES | Disease control VENTURIA INAEQUALIS (APPLES) (VENTURIA INAEQUALIS) | Disease control […] (VINES) ([…] [1]) | Disease control P[…] (RICE) (P[…]) | Disease control CERCOSPORA ARACHIDICOLA (PEANUTS) (CERCOSPORA ARACHIDICOLA) | Disease control PUCCINIA RECONDITA (WHEAT) (PUCCINIA RECONDITA) | Disease control […] (VINES) ([…] [2]) | Disease control Phytophthora infestans (tomatoes) [3] | Disease control […] (VINES) ([…] [4])
1 | N#CCNC(=O)C(C#N)=NO [Compound 31, 2-cyano-2-oximino-N-(cyanomethyl)-acetamide] | 0 (0 = 60-100% of disease on untreated plants) | 0 (0 = 60-100% of disease on untreated plants) | 2 (2 = 6-25% of disease on untreated plants) | 0 (0 = 60-100% of disease on untreated plants) | 0 (0 = 60-100% of disease on untreated plants) | – | – | –
2 | C#CCN(CC=C)C(=O)C(C#N)=NOC [Compound 10, 2-cyano-2-methoxyimino-N-(propargyl)-N-allylacetamide] | 0 (0 = 60-100% of disease on untreated plants) | 3 (3 = trace to 5% of disease on untreated plants) | 0 (0 = 60-100% of disease on untreated plants) | 2 (2 = 6-25% of disease on untreated plants) | 0 (0 = 60-100% of disease on untreated plants) | 2 (2 = 6-25% of disease on untreated plants) | – | –
3 | C#CCNC(=O)C(C#N)=NOC [Compound 1, 2-cyano-2-methoxyimino-N-propargylacetamide] | 2 (2 = 6-25% of disease on untreated plants) | 4 | 3 (3 = trace to 5% of disease on untreated plants) | 2 (2 = 6-25% of disease on untreated plants) | 4 | 4 | – | –
4 | CON=C(C#N)C(=O)Nc1nccs1 [Compound 25, 2-cyano-2-methoxyimino-N-2-thiazolylacetamide] | 2 (2 = 6-25% of disease on untreated plants) | 4 | 0 (0 = 60-100% of disease on untreated plants) | 0 (0 = 60-100% of disease on untreated plants) | 3 (3 = trace to 5% of disease on untreated plants) | 0 (0 = 60-100% of disease on untreated plants) | 2 (2 = 6-25% of disease on untreated plants) | –
5 | CCON=C(C#N)C(=O)NCC#N [Compound 22, 2-cyano-2-ethoxyimino-N-(cyanomethyl)-acetamide] | 4 | 4 | 3 (3 = trace to 5% of disease on untreated plants) | 3 (3 = trace to 5% of disease on untreated plants) | 3 (3 = trace to 5% of disease on untreated plants) | 4 | – | –
6 | CON=C(C#N)C(=O)NC(C)C#N (stereo not drawn) [Compound 34, 2-cyano-2-methoxyimino-N-(α-cyanoethyl)-acetamide] | 0 (0 = 60-100% of disease on untreated plants) | 4 | 0 (0 = 60-100% of disease on untreated plants) | 0 (0 = 60-100% of disease on untreated plants) | 4 | 4 | 3 (3 = trace to 5% of disease on untreated plants) | –
7 | CON=C(C#N)C(=O)NC(C#N)c1ccco1 (stereo not drawn) [Compound 63, 2-cyano-2-methoxyimino-N-[(2-furyl)-α-cyano-methyl]-acetamide] | 0 (0 = 60-100% of disease on untreated plants) | 4 | 0 (0 = 60-100% of disease on untreated plants) | 0 (0 = 60-100% of disease on untreated plants) | 2 (2 = 6-25% of disease on untreated plants) | 4 | – | –
8 | C#CCN(CC#C)C(=O)C(C#N)=NOC [Compound 9, 2-cyano-2-methoxyimino-N,N-dipropargyl-acetamide] | 0 (0 = 60-100% of disease on untreated plants) | 4 | 2 (2 = 6-25% of disease on untreated plants) | 0 (0 = 60-100% of disease on untreated plants) | 2 (2 = 6-25% of disease on untreated plants) | – | – | 3* (3 = trace to 5% of disease on untreated plants)
9 | CON=C(C#N)C(=O)NCC#N [Compound 20, 2-cyano-2-methoxyimino-N-(cyanomethyl)-acetamide] | 3 (3 = trace to 5% of disease on untreated plants) | 4 | 1 (1 = 26-59% of disease on untreated plants) | 2 (2 = 6-25% of disease on untreated plants) | 3 (3 = trace to 5% of disease on untreated plants) | 4 | 2 (2 = 6-25% of disease on untreated plants) | –
10 | CON=C(C#N)C(=O)NCC(I)=CI [Compound 7, 2-cyano-2-methoxyimino-N-2,3-diiodo-allylacetamide] | 0 (0 = 60-100% of disease on untreated plants) | 4 | 2 (2 = 6-25% of disease on untreated plants) | 0 (0 = 60-100% of disease on untreated plants) | 0 (0 = 60-100% of disease on untreated plants) | – | – | 2* (2 = 6-25% of disease on untreated plants)
11 | CON=C(C#N)C(=O)NCC(=O)OC [Compound 24, methoxycarbonylmethyl-(2-cyano-2-methoxyimino)-acetamide] | 0 (0 = 60-100% of disease on untreated plants) | 4 | 0 (0 = 60-100% of disease on untreated plants) | 2 (2 = 6-25% of disease on untreated plants) | 1 (1 = 26-59% of disease on untreated plants) | 0 (0 = 60-100% of disease on untreated plants) | – | –
12 | CON=C(C#N)C(=O)NCC(N)=S [Compound 54, 2-cyano-2-methoxyimino-N-(thio-carbamoylmethyl)-acetamide] | 0 (0 = 60-100% of disease on untreated plants) | 4 | 0 (0 = 60-100% of disease on untreated plants) | 3 (3 = trace to 5% of disease on untreated plants) | 3 (3 = trace to 5% of disease on untreated plants) | 4 | 3 (3 = trace to 5% of disease on untreated plants) | –
